Experiments:
[1] = molar heat capacity at constant pressure; settings: 101 kPa, Liquid
[2] = 101 kPa, Liquid; for speed of sound: Pulse-echo method; for mass density: Vibrating tube method
[3] = molar heat capacity at constant pressure; xn = mol fraction of the nth substance listed; settings: 101 kPa, Liquid, x2 = 0
[4] = xn = mol fraction of the nth substance listed; settings: 101 kPa, Liquid, x2 = 0; for mass density: Vibrating tube method; for speed of sound: Pulse-echo method

BrCCCCCBr [1,5-dibromopentane]
Settings	mass density [kg/m3]	molar heat capacity at constant pressure [J/K/mol]	speed of sound [m/s]
[1], 293.15 K	–	219.76	–
[1], 294.15 K	–	219.98	–
[1], 295.15 K	–	220.19	–
[1], 296.15 K	–	220.41	–
[1], 297.15 K	–	220.66	–
[1], 298.15 K	–	220.84	–
[1], 299.15 K	–	221.1	–
[1], 300.15 K	–	221.28	–
[1], 301.15 K	–	221.49	–
[1], 302.15 K	–	221.73	–
[1], 303.15 K	–	221.95	–
[1], 304.15 K	–	222.17	–
[1], 305.15 K	–	222.41	–
[1], 306.15 K	–	222.63	–
[1], 307.15 K	–	222.85	–
[1], 308.15 K	–	223.09	–
[1], 309.15 K	–	223.31	–
[1], 310.15 K	–	223.56	–
[1], 311.15 K	–	223.78	–
[1], 312.15 K	–	224.03	–
[1], 313.15 K	–	224.26	–
[2], 292.38 K	–	–	1149.5
[2], 292.52 K	1699.54	–	–
[2], 298.05 K	1691.87	–	–
[2], 298.37 K	–	–	1133
[2], 303.06 K	1684.89	–	–
[2], 303.39 K	–	–	1119.3
[2], 308.08 K	1678.03	–	–
[2], 308.38 K	–	–	1105.8
[2], 314.36 K	–	–	1089.7
[2], 314.66 K	1668.75	–	–

CCCCCCC [heptane]
Settings	mass density [kg/m3]	molar heat capacity at constant pressure [J/K/mol]	speed of sound [m/s]
[1], 293.15 K	–	222.87	–
[1], 294.15 K	–	223.23	–
[1], 295.15 K	–	223.6	–
[1], 296.15 K	–	223.97	–
[1], 297.15 K	–	224.35	–
[1], 298.15 K	–	224.72	–
[1], 299.15 K	–	225.1	–
[1], 300.15 K	–	225.47	–
[1], 301.15 K	–	225.87	–
[1], 302.15 K	–	226.22	–
[1], 303.15 K	–	226.61	–
[1], 304.15 K	–	227	–
[1], 305.15 K	–	227.4	–
[1], 306.15 K	–	227.75	–
[1], 307.15 K	–	228.14	–
[1], 308.15 K	–	228.54	–
[1], 309.15 K	–	228.95	–
[1], 310.15 K	–	229.3	–
[1], 311.15 K	–	229.71	–
[1], 312.15 K	–	230.11	–
[1], 313.15 K	–	230.51	–
[2], 292.7 K	684.18	–	–
[2], 292.84 K	–	–	1153.7
[2], 297.98 K	679.88	–	–
[2], 298.84 K	–	–	1127.7
[2], 302.94 K	675.72	–	–
[2], 303.8 K	–	–	1106.4
[2], 308.06 K	671.47	–	–
[2], 308.78 K	–	–	1085.1
[2], 314.1 K	666.39	–	–
[2], 314.87 K	–	–	1059.1

CCCCCCC [heptane] + BrCCCCCBr
Settings	mass density [kg/m3]	molar heat capacity at constant pressure [J/K/mol]	speed of sound [m/s]
[3], 293.15 K	–	222.87	–
[3], 294.15 K	–	223.23	–
[3], 295.15 K	–	223.6	–
[3], 296.15 K	–	223.97	–
[3], 297.15 K	–	224.35	–
[3], 298.15 K	–	224.72	–
[3], 299.15 K	–	225.1	–
[3], 300.15 K	–	225.47	–
[3], 301.15 K	–	225.87	–
[3], 302.15 K	–	226.22	–
[3], 303.15 K	–	226.61	–
[3], 304.15 K	–	227	–
[3], 305.15 K	–	227.4	–
[3], 306.15 K	–	227.75	–
[3], 307.15 K	–	228.14	–
[3], 308.15 K	–	228.54	–
[3], 309.15 K	–	228.95	–
[3], 310.15 K	–	229.3	–
[3], 311.15 K	–	229.71	–
[3], 312.15 K	–	230.11	–
[3], 313.15 K	–	230.51	–
[4], 292.7 K	684.18	–	–
[4], 292.84 K	–	–	1153.7
[4], 297.98 K	679.88	–	–
[4], 298.84 K	–	–	1127.7
[4], 302.94 K	675.72	–	–
[4], 303.8 K	–	–	1106.4
[4], 308.06 K	671.47	–	–
[4], 308.78 K	–	–	1085.1
[4], 314.1 K	666.39	–	–
[4], 314.87 K	–	–	1059.1

— the NIST ThermoML archive (doi:10.1021/je060200b)
